{"source": "paper PMC9103758", "about": "(International Journal of Molecular Sciences, 2022)", "key": {"ANO1": {"target": "T1, ANO1 (Homo sapiens, UniProt Q5XXA6, DEL476-501)", "T1 construct": "expressed in transfected cells; host or cells: Fisher rat thyroid (FRT) cells; The YFP assay uses FRT-ANO1-YFP cells, which also carry the halide sensor", "T1 sequence (Q5XXA6 with tags, fused parts or gaps isoform Q5XXA6-5 DEL539-564)": "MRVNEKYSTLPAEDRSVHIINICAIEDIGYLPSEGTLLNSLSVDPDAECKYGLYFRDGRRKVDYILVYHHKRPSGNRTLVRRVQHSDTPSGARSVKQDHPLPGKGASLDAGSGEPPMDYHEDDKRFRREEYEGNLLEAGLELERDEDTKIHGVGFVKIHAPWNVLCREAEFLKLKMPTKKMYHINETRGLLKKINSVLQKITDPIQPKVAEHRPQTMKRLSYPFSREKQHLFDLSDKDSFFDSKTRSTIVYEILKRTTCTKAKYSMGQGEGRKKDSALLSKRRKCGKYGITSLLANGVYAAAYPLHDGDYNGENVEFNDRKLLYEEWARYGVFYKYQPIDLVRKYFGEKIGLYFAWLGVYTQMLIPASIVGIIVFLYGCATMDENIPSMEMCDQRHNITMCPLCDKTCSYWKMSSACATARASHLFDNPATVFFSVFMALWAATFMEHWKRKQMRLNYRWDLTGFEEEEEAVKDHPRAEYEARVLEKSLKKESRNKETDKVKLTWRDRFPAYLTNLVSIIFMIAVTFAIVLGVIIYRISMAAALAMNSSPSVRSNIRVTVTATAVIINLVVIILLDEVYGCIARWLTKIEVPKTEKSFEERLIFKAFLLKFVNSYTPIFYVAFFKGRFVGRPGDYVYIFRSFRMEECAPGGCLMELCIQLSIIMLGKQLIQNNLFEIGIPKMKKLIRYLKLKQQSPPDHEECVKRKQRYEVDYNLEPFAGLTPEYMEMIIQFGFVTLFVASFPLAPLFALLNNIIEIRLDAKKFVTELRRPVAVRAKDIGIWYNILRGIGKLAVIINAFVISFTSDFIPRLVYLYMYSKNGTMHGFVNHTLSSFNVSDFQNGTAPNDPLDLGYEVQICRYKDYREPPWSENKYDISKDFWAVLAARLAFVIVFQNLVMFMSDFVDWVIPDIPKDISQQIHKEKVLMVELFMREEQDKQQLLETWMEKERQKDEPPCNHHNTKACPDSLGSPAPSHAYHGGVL", "assay": "Apical membrane current of ANO1 in FRT cells expressing human ANO1", "assay_type": "cell-based", "method": "(A) Representative Fluo4 fluorescence traces from 3 independent experiments in FRT cells. […] (B,C) Representative apical membrane currents from 3–4 independent experiments in FRT cells expressing human ANO1. […] (D) Representative YFP fluorescence traces in FRT cells expressing human ANO2. […] (E) Representative Fluo4 fluorescence traces from 3 independent experiments in FRT cells. Cells were pretreated with DCPIB for 10 min followed by application of 100 μM ATP. (F) Representative apical membrane currents in FRT cells expressing human ANO1.\nSnapwell inserts containing ANO1(abc) or CFTR-expressing FRT cells were mounted in Ussing chambers (Physiological Instruments, San Diego, CA). The basolateral hemichamber was filled with buffer solution (in mM): 120 NaCl, 5 KCl, 1 MgCl2, 1 CaCl2, 10 D-glucose, 2.5 HEPES, and 25 NaHCO3 (pH 7.4). The apical hemichamber was filled with buffer solution (in mM): 60 NaCl, 60 Na-gluconate, 5 KCl, 1 MgCl2, 1 CaCl2, 10 D-glucose, 2.5 HEPES, and 25 NaHCO3 (pH 7.4). FRT cells were bathed for a 10 min stabilization period and gassed with 5% CO2 and 95% O2 at 37 °C. The apical membrane current was recorded with an EVC4000 Multi-Channel V/I Clamp (World Precision Instruments, Sarasota, FL, USA) and a PowerLab 4/35 (AD Instruments, Castle Hill, Australia)."}, "VRAC": {"target": "T2, VRAC (Homo sapiens, UniProt Q8IWT6)", "T2 sequence (Q8IWT6 1-810)": "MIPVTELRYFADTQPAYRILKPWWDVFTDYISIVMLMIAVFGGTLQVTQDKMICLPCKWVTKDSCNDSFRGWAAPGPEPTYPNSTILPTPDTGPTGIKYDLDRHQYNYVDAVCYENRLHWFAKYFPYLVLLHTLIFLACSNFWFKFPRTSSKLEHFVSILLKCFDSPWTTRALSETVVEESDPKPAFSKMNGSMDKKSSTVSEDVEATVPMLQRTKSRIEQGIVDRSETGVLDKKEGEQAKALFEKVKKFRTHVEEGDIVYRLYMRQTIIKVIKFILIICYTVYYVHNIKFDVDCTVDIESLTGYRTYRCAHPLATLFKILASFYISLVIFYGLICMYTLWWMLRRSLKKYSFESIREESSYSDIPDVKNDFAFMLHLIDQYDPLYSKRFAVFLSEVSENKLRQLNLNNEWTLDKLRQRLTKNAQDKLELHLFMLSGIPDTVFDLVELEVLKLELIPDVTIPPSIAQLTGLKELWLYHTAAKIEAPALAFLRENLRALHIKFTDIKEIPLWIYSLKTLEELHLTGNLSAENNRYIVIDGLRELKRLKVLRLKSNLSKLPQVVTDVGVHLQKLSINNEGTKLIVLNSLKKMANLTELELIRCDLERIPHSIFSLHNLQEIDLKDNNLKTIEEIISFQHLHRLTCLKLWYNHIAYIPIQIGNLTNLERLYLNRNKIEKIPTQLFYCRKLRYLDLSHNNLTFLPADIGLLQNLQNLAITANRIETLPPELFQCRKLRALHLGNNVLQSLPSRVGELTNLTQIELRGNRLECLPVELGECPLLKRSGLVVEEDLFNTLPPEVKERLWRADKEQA"}}, "data": [{"smiles": "COc1cccc(C(c2c(O)c3ccccc3oc2=O)c2c(O)c3ccccc3oc2=O)c1O", "note": "[VI-116, 3,3′-((2-hydroxy-3-methoxyphenyl)methylene)bis(4-hydroxy-2H-chromen-2-one)]", "values": [{"measurement": "effect on ANO1 channel activity", "setting": "ANO1; 10 μM", "value": "minimal effect"}, {"measurement": "effect on ANO1 activation by Eact (apical membrane current)", "setting": "ANO1; FRT cells expressing human ANO1, 3 μM Eact", "value": "did not alter"}, {"measurement": "effect on ANO1 activation by ATP (apical membrane current)", "setting": "ANO1; FRT cells expressing human ANO1, 100 μM ATP", "value": "did not alter"}, {"measurement": "effect on VRAC", "setting": "VRAC; 10 μM", "value": "completely inhibits"}, {"measurement": "effect on VRAC activity (VRAC-mediated I- quenching)", "setting": "VRAC; LN215 cells", "value": "fully inhibited"}, {"measurement": "decrease of potency on VRAC with 10% FBS compared to without FBS", "setting": "VRAC; LN215 cells, 10% FBS", "value": 5.4, "unit": "fold"}]}]}
